Earlier results, collected in paper PMC4153342 (Vaccine, 2014).

System: HLA-A2 on TAP-deficient/HLA-A2+ T2 cells
Conditions: previously reported

For RLQGISPKI [p103], which “affinity for HLA-A2 in vitro” value is on record?
The value was “have affinity for HLA-A2”.

For KASEKIFYV [p41], which “affinity for HLA-A2 in vitro” value is on record?
Its value is “have affinity for HLA-A2”.

For AMTKLGFKA [p57], which “affinity for HLA-A2 in vitro” value is on record?
The value was “have affinity for HLA-A2”.

With MTFGRLQGI [p99] as the sequence, how does the “affinity for HLA-A2 in vitro” value read?
The value was “have affinity for HLA-A2”.
